From patent US7977082B2, “Isomaltulose synthases, polynucleotides encoding them and uses therefor” (The University of Queensland of St. Lucia, priority 2001, dated 2011)
Where “and” joins values, the source holds several entries; their conditions need not be identical. Equal values may be shown once. Residues, ends and D or L forms follow the SMILES beside them.

B1: Pantoea dispersa 68J sucrose isomerase (SI), mature, SEQ ID NO: 10, carboxy-terminal 6×His tag (SEQ ID NO: 52) (Pantoea dispersa) (protein)
chain: ATNIQKSADFPIWWKQAVFYQIYPRSFKDSNGDGIGDIPGIIEKLDYLKMLGVDAIWINPHYESPNTDNGYDISDYRKIMKEYGSMADFDRLVAEMNKRGMRLMIDIVINHTSDRHRWFVQSRSGKDNPYRDYYFWRDGKQGQAPNNYPSFFGGSAWQLDKQTDQYYLHYFAPQQPDLNWDNPKVRAELYDILRFWLDKGVSGLRFDTVATFSKIPGFPDLSKAQLKNFAEAYTEGPNIHKYIHEMNRQVLSKYNVATAGEIFGVPVSAMPDYFDRRREELNIAFTFDLIRLDRYPDQRWRRKPWTLSQFRQVISQTDRAAGEFGWNAFFLDNHDNPRQVSHFGDDSPQWRERSAKALATLLLTQRATPFIFQGAELGMTNYPFKNIEEFDDIEVKGFWNDYVASGKVNAAEFLQEVRMTSRDNSRTPMQWNDSVNAGFTQGKPWFHLNPNYKQINAAREVNKPDSVFSYYRQLINLRHQIPALTSGEYRDLDPQNNQVYAYTRILDNEKYLVVVNFKPEQLHYALPDNLTIASSLLENVHQPSLQENASTLTLAPWQAGIYKLN
B2: Klebsiella sp. 14S sucrose isomerase (SI), carboxy-terminal 6×His tag (SEQ ID NO: 52) (Klebsiella planticola) (protein)
chain: APSVNQNIHVHKESEYPAWWKEAVFYQIYPRSFKDTNDDGIGDIRGIIEKLDYLKSLGIDAIWINPHYDSPNTDNGYDISNYRQIMKEYGTMEDFDNLVAEMKKRNMRLMIDVVINHTSDQHPWFIQSKSDKNNPYRDYYFWRDGKDNQPPNNYPSFFGGSAWQKDAKSGQYYLHYFARQQPDLNWDNPKVREDLYAMLRFWLDKGVSSMRFDTVATYSKIPGFPNLTPEQQKNFAEQYTMGPNIHRYIQEMNRKVLSRYDVATAGEIFGVPLDRSSQFFDPRRHELNMAFMFDLIRLDRDSNERWRHKSWSLSQFRQIISKMDVTVGKYGWNTFFLDNHDNPRAVSHFGDDRPQWREASAKALATITLTQRATPFIYQGSELGMTNYPFRQLNEFDDIEVKGFWQDYVQSGKVTATEFLDNVRLTSRDNSRTPFQWNDTLNAGFTRGKPWFHINPNYVEINAEREETREDSVLNYYKKMIQLRHHIPALVYGAYQDLNPQDNTVYAYTRTLGNERYLVVVNFKEYPVRYTLPANDAIEEVVIDTQQQATAPHSTSLSLSPWQAGVYKLR

tested on: strain 68J; experiment: Growth of strain 68J with different carbon sources (BIOLOG GN); type: cell-based, Pantoea dispersa; design: scale not given here; settings: relative values; 96-well plates (BIOLOG GN)
Experimental: The morphological, cultural and biochemical features of strain 68J were determined in tests using E. coli (Top 10), K. oxytoca (JMP4505), E. rhapontici (WAC2928) as positive/negative controls. Gram stain, fermentation, catalase activity, pigment observation, and Simon's citrate tests were conducted according to Singleton (1999, Bacteria in Biology, Biotechnology and Medicine (5th edition). Wiley, New York). Oxidase activity by Kovac's reagent, indole production by Ehrlich's indole test, methyl red response, Voges-Proskauer reaction in Clark and Lub's medium, urea hydrolysis in Christensen's urea, lysine decarboxylase, ornithine decarboxylase and gelatin liquefaction were tested as described by MacFaddin (1979, Biochemical Tests for Identification of Medical Bacteria. Williams & Wilkins, Baltimore). Morphology, capsules and motility were observed microscopically. Carbon source utilization was tested in 96-well plates (BIOLOG GN).

| Molecule | Growth |
| --- | --- |
| O=P(O)(O)O[C@H]1O[C@H](CO)[C@@H](O)[C@H](O)[C@H]1O [Glucose-1-phosphate] | 356 |
| N[C@@H](C(=O)O)[C@@H](O)[C@H](O)[C@H](O)CO [D-glucosaminic acid] | 1 |
| NCCO [2-amino ethanol] | −4 |
| OC[C@H]1O[C@H](OCC2O[C@@H](O)[C@H](O)[C@@H](O)[C@@H]2O)[C@H](O)[C@@H](O)[C@H]1O (stereo partly drawn) [D-melibiose] | 6 |
| O=C(O)/C=C(/CC(=O)O)C(=O)O [cis-aconitic acid] | 122 |
| O=C1O[C@@H]([C@H](O)CO)[C@H](O)[C@H]1O [D-galactonic acid lactone] | −7 |
| O=C(O)CCC(=O)C(=O)O [α-keto glutanic acid] | 91 |
| α-D-lactose lactulose | 12 |
| O=C(O)Cc1ccc(O)cc1 [ρ-hydroxy phenylacetic acid] | 5 |
| C[C@@H](O)[C@H](N)C(=O)O [L-theronine] | −12 |
| NCC(=O)N[C@@H](CC(=O)O)C(=O)O [Glycyl-L-aspatic acid] (H-Gly-Asp-OH) | −8 |
| OC[C@@H](O)C(O)[C@H](O)CO [D-arabitol] | −11 |
| OC[C@H]1O[C@H](OC[C@H]2O[C@H](O[C@]3(CO)O[C@H](CO)[C@@H](O)[C@@H]3O)[C@H](O)[C@@H](O)[C@@H]2O)[C@H](O)[C@@H](O)[C@H]1O [D-raffinose] | 330 |
| CO[C@@H]1O[C@H](CO)[C@@H](O)[C@H](O)[C@H]1O [β-methyl D-glucosidase] | 684 |
| Tween40 | 25 |
| OC[C@H]1O[C@@H]2O[C@H]3[C@H](O)[C@@H](O)[C@@H](O[C@H]4[C@H](O)[C@@H](O)[C@@H](O[C@H]5[C@H](O)[C@@H](O)[C@@H](O[C@H]6[C@H](O)[C@@H](O)[C@@H](O[C@H]7[C@H](O)[C@@H](O)[C@@H](O[C@H]1[C@H](O)[C@H]2O)O[C@@H]7CO)O[C@@H]6CO)O[C@@H]5CO)O[C@@H]4CO)O[C@@H]3CO [a-cyclodextrin] | 9 |
| 2,3-butynediol | 1 |
| OC[C@H]1O[C@H](O[C@H]2O[C@H](CO)[C@@H](O)[C@H](O)[C@H]2O)[C@H](O)[C@@H](O)[C@@H]1O [D-trehalose] | 619 |
| O=P(O)(O)OCC(O)CO (racemic) [D,L-α-glycerol phosphate] | −8 |
| O=C(O)[C@H]1OC(O)[C@H](O)[C@@H](O)[C@@H]1O (stereo partly drawn) [D-glucoronic acid] | 6 |
| OC[C@@H](O)[C@@H](O)CO [i-erythritol] | 0 |
| O=C(CO)[C@@H](O[C@H]1O[C@H](CO)[C@@H](O)[C@H](O)[C@H]1O)[C@H](O)[C@H](O)CO [Turanose] | 23 |
| O[C@H]1[C@H](O)[C@@H](O)[C@H](O)[C@@H](O)[C@H]1O [m-inositol] | 611 |
| C[N+](C)(C)CC(O)CC(=O)[O-] (racemic) [D,L-carnitine] | −10 |
| CC(O)C(=O)O (racemic) [D,L-lactic acid] | 365 |

tested on: P. dispersa 68J; experiment: Growth in BP medium with different sugars; type: cell-based; settings: 2% sugar added to BP medium, 18 h incubation at 30°C
Experimental: Isomaltulose production was tested using cells grown in LB and in a basal peptone medium (BP, comprising 1% BBL gelysate peptone and 0.5% NaCl, adjusted to pH 7.0 prior to autoclaving). Glucose, fructose, sucrose, lactose, maltose or isomaltulose was added to the cooled media, from a filter-sterilised stock. The media containing 4% (w/v) sucrose are referred to as SLB and SBP respectively.
Inoculum of 100 μL from a culture grown for 12 h in LB medium was added to 25 mL growth medium in a 250 mL flask. After 18 h at 30° C. on a shaker at 225 rpm, OD600 was used to measure growth. Cultures were diluted with growth medium to OD600=1.50 (approximately half the cell density of a saturated culture in SLB). Aliquots of 1 mL were harvested by centrifugation at 5000×g for 10 min and washed three times with 0.1 M citrate/phosphate buffer (pH 6.0). The cell pellets were resuspended in 0.4 mL of 0.1 M citrate/phosphate buffer (pH 6.0) containing 50% sucrose (w/v). Culture supernatant was filtered through a 0.2 μm filter (Pall Acrodisc), and 0.1 mL was mixed with 0.4 mL of 0.1 M citrate/phosphate buffer (pH 6.0) containing 50% sucrose (w/v), for parallel testing of culture filtrate and harvested cells in the SI assay.

| Molecule | effect on growth of P. dispersa 68J |
| --- | --- |
| OC[C@H]1O[C@@H](O[C@H]2[C@H](O)[C@@H](O)C(O)O[C@@H]2CO)[C@H](O)[C@@H](O)[C@H]1O (stereo partly drawn) [lactose] | little effect |
| OC[C@H]1O[C@@](CO)(O[C@H]2O[C@H](CO)[C@@H](O)[C@H](O)[C@H]2O)[C@@H](O)[C@@H]1O [Sucrose] | supported faster growth |
| OC[C@H]1O[C@H](O[C@H]2[C@H](O)[C@@H](O)[C@H](O)O[C@@H]2CO)[C@H](O)[C@@H](O)[C@@H]1O [Maltose] | little effect |

tested on: E. rhapontici sucrose isomerase (SI); experiment: not given; settings: Nagai et al., 1994; Véronèse and Perlot, 1998; cited from earlier work

| Molecule | Inhibition of activity |
| --- | --- |
| OC[C@H]1OC(O)(CO)[C@@H](O)[C@@H]1O (stereo partly drawn) [fructose] | not |

tested on: K. plymuthica sucrose isomerase (SI); experiment: not given; settings: Nagai et al., 1994; Véronèse and Perlot, 1998; cited from earlier work

| Molecule | Inhibition of activity |
| --- | --- |
| OC[C@H]1OC(O)(CO)[C@@H](O)[C@@H]1O (stereo partly drawn) [fructose] | not |

tested on: P. rubrum sucrose isomerase (SI); experiment: not given; settings: Nagai et al., 1994; Véronèse and Perlot, 1998; cited from earlier work

| Molecule | Inhibition of activity |
| --- | --- |
| OC[C@H]1OC(O)(CO)[C@@H](O)[C@@H]1O (stereo partly drawn) [fructose] | not |

tested on: P. mesoacidophila sucrose isomerase (SI); experiment: not given; settings: Nagai et al., 1994; Véronèse and Perlot, 1998; cited from earlier work

| Molecule | Inhibition of activity |
| --- | --- |
| OC[C@H]1OC(O)(CO)[C@@H](O)[C@@H]1O (stereo partly drawn) [fructose] | not |

substrate: OC[C@H]1O[C@@](CO)(O[C@H]2O[C@H](CO)[C@@H](O)[C@H](O)[C@H]2O)[C@@H](O)[C@@H]1O; experiment: Sucrose isomerase kinetics, purified SI from P. dispersa 68J (isomaltulose production), with or without glucose/fructose; type: biochemical, Pantoea dispersa 68J; settings: other: sucrose, pH 6.0, 30° C., Lineweaver and Burk
Experimental: (§1) The pET24b vector introduces a carboxy-terminal 6×His tag (SEQ ID NO: 52) on expressed proteins, which were purified by adsorption to Ni-NTA agarose (Qiagen) and elution with 25 mM NaH2PO4, 150 mM NaCl, 125 mM imidazole buffer (pH8.0) following the manufacturer's instructions. For storage, the eluted solution was diluted with 50% glycerol. The purity of SI proteins was tested by SDS-PAGE as described below. A batch procedure using Ni-NTA agarose in suspension yielded predominantly (80-95%) SI with a background of several other protein bands. A procedure using Ni-NTA agarose in adsorption columns yielded preparations containing a single protein band. […]
(§2) Enzyme activities were measured by incubating 5 μl of purified enzyme with 95 μL of sucrose solution at a final concentration of 584 mM in 0.1 M citrate/phosphate buffer (pH 6.0) at 30° C. Sugar profiles in the reaction mix were analysed at intervals by CE as described previously. […]
(§3) SI activity was measured by incubating the purified enzyme with different sucrose concentrations (3, 6, 15, 58, 146, 292, 584, 877, 1169 and 1461 mM) under standard assay conditions, and also with addition of glucose, fructose or both to a final concentration of 277 mM. Data were analyzed according to the method of Lineweaver and Burk (Voet and Voet, 1995) to calculate Km and Vmax values.

| Molecule | Km | Vmax |
| --- | --- | --- |
| B1 | 46.6 mM and 47 mM | 636.9 U mg^−1 |

substrate: OC[C@H]1O[C@@](CO)(O[C@H]2O[C@H](CO)[C@@H](O)[C@H](O)[C@H]2O)[C@@H](O)[C@@H]1O; experiment: Sucrose isomerase kinetics, purified SI from Klebsiella sp. 14S (isomaltulose production), with or without glucose/fructose; type: biochemical; settings: other: sucrose, pH 6.0, 30° C., Lineweaver and Burk
Experimental: as §1, §2, §3

| Molecule | Km | Vmax |
| --- | --- | --- |
| B2 | 81.6 mM | 99.8 U mg^−1 |
